Experimental data as given in patent EP2939983A1, “Titanium dioxide-catalysed oxidation method” (Sistiana Inversiones S.L., priority 2014, dated 2015).

Columns and labels:
[1] = in water; cited from earlier work
[2] = Rhodamine B degradation kinetics with TiO2 catalyst, H2O2 and acid in the absence of light
Excerpt: The walls of a beaker (Ǿ = 10 cm) were covered with aluminum foil to prevent any light exposure to the inside. A magnetic stirrer was introduced in a smaller beaker (Ǿ = 6.5 cm), which was then covered on the top with parafilm and a small hole was punched thereon. The smaller beaker was introduced concentrically into the larger one. To immobilize the inner beaker, a foam was placed between the walls of the two vessels. A cover of the same foam (Ǿ = 10 cm, 1.5 cm thick) was placed on the top of the larger beaker. In the cover, a hole (Ǿ = 0.5 cm) close to the inside wall of the inner beaker facilitated sample collection in the vortex formed during the agitation of the reaction mixture. A second hole situated on the opposite side of the first one was punched in order to facilitate pH measurements.
The catalytic reactor was placed on the stirrer (VMS-C4, VWR) at around 750 rpm. Then, the inner beaker was filled with the help of a funnel with the required amount of TiO2. Immediately afterwards, the appropriate amount of 9.8 M H2O2 and deionised water, in each case, for a total volume of 20 mL, was introduced. The mixture was stirred for 1 minute, and 20 mL of the required concentration of Rhodamine B were then added. In the cases where an acid was employed, the corresponding amount of acid to achieve a particular pH was introduced in the reaction mixture before the addition of Rhodamine B. After 3 minutes stirring, an aliquot of 1 mL was taken through a plastic Pasteur pipette and was introduced in an Eppendorf tube (1.5 mL). The sample was centrifugated (Mikro 120, Hettich Zentrifugen) at 14000 rpm for 1 minute. The supernatant was centrifugated again under the same conditions and the remaining supernatant was placed in a 1.5 mL cuvette for analysis in a spectrophotometer (Du 730, Beckman Coulter). […] Finally, the TiO2 and the liquid were reintroduced into the inner beaker. The procedure, starting with the 1 mL aliquot extraction, was repeated (at least) every 3 min for a maximum of 2 h. The experiment was repeated 4 times for every imposed condition.
Linear regressions were conducted with the obtained data. […] The kinetic constant of the reaction was the parameter used to compare the oxidative capacity of the different oxidation conditions in the method of the invention.

[3] = 5% H2O2, 10g/L TiO2 (aeroxide P90), pH=3 (HCl), 0.025 mM Rhodamine B; reaction order 0.66
[4] = 0.025 mM Rhodamine B, 30g/L of TiO2 (aeroxide P90), 5% H2O2 solution
[5] = 0.025 mM Rhodamine B, 30g/L of TiO2 (aeroxide P90), 5% H2O2 solution, pH 2.0
[6] = 0.025 mM Rhodamine B, 30g/L of TiO2 (aeroxide P90), 5% H2O2 solution, pH 2.0, absence of light
[7] = 0.050 mM Rhodamine B, 10g/L of TiO2 (aeroxide P90), 5% H2O2 solution, pH of 2

SMILES: [O]=[Cr](=[O])([OH])[OH] [chromic acid]
- pKa [1]: -0.1

SMILES: O=CO [Formic, formic acid, reference compound]
- Rate constants for degradation kinetics (k544/min^-1) ([2]; pH 2): 0.0263 ± 0.0035 min⁻¹

SMILES: O=O [oxygen]
- kinetic constant greater than that of the reaction not supplied with oxygen [3]: about 15%

SMILES: O=S(=O)(O)O [Sulfuric, sulfuric acid]
- Rate constants for degradation kinetics (k554/min^-1), pH 1.5 [2, 4]: 0.2360±0.0430 min^-1
- Rate constants for degradation kinetics (k554/min^-1), pH 2.0 [2, 5]: 0.1124±0.0112 min^-1
- Rate constants for degradation kinetics (k544/min^-1) [2, 6]: 0.1124 ± 0.0112 min⁻¹
- Rate constants for degradation kinetics (k544/min^-1) [2, 7]: 0.0293 ± 0.0021 min⁻¹

SMILES: Cl [Hydrochloric, hydrochloric acid]
- Rate constants for degradation kinetics (k554/min^-1), pH 1.5 [2]: 0.3370±0.0990 min^-1
- Rate constants for degradation kinetics (k554/min^-1), pH 2.0 ([2]; pH 2): 0.1260±0.0173 min^-1

SMILES: [O-][Cl+3]([O-])([O-])O [Perchloric, perchloric acid]
- Rate constants for degradation kinetics (k554/min^-1), pH 1.5 [2, 4]: 0.3550±0.1180 min^-1
- Rate constants for degradation kinetics (k554/min^-1), pH 2.0 [2, 5]: 0.1194±0.0095 min^-1
- Rate constants for degradation kinetics (k544/min^-1) [2, 6]: 0.1194 ± 0.0095 min⁻¹
- Rate constants for degradation kinetics (k544/min^-1) [2, 7]: 0.0318 ± 0.0021 min⁻¹

SMILES: O=C(O)C(F)(F)F [trifluoroacetic acid]
- pKa [1]: -0.25

SMILES: O=S(O)O [sulfurous acid]
- pKa [1]: 1.9
